Values quoted from earlier work, collected in article PMC10572662 (International Journal of Molecular Sciences, 2023).

Set-up: method as in PMID 17601630
Details: native βCD and commercial βCD derivatives

water solubility	Substance
600 mg/mL	2-hydroxypropyl-βCD
> 500 mg/mL	O-methyl-βCD
> 500 mg/mL	sulfobutylether-βCD
